US12559529B2, “NPY2 receptor agonists” (Boehringer Ingelheim International GmbH, priority 2019, dated 2026)

What was measured:
[1] = biological target: T1, Human Neuropeptide Y2 Receptor (Homo sapiens, UniProt P49146); assay: Radioligand binding competition assay (RLB)
T1 construct: purchased CHEMICON HTS066M
T1 sequence (P49146 1-381): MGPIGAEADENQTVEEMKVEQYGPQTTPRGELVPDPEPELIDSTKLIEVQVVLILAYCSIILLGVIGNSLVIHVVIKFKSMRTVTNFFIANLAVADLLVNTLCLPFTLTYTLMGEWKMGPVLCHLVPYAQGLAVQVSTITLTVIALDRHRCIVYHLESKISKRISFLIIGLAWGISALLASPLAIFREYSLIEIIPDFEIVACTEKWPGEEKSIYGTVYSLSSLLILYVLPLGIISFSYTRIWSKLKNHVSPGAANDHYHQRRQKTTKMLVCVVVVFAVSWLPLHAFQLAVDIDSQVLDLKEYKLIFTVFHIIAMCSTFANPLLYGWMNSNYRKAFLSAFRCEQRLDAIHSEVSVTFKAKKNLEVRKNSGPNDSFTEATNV
In short: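 Membranes from cells expressing human Y2 receptor (0.5 μg protein/well) were incubated with radioligand and serially diluted peptides in 50 mM HEPES, 5 mM MgCl2, 1 mM CaCl2, 0.2% ovalbumin, pH 7.4, for 2 h at room temperature with shaking. Bound radioactivity was collected by filtration and counted; IC50 from sigmoidal nonlinear regression.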

[2] = biological target: T1, Human Neuropeptide Y2 Receptor; assay: Activity (RLB) after incubation in solutions at different pH values; format: binding; settings: apparent Ki of filtrate after 2 h in buffer
Protocol: The filtration RLB assay was carried out in 96-well plates in a final volume of 100 μl per well. Freeze-dried test peptides were dissolved in 100% dimethyl sulfoxide (DMSO) to stock solutions of 1 mM and serial dilutions were performed in assay buffer (50 mM HEPES, 5 mM MgCl2, 1 mM CaCl2), pH 7.4) containing 0.2% ovalbumin. […] Next, 80 μL membranes (HTS066M, ChemiSCREEN™ Human Neuropeptide Y2 Receptor Membrane Preparation, CHEMICON) were added to each well to give a final protein concentration of 0.5 μg/well. The plates were sealed and incubated at room temperature for 2 hours in a plate shaker set at 400 rpm. The incubation was stopped by vacuum filtration onto 0.5% poly-ethylene amine (PEI) presoaked GF/C filters using a 96-well FilterMate™ harvester (Perkin Elmer) followed by four washes with 300 μl/well ice-cold wash buffer (50 mM HEPES, 500 mM NaCl, pH7.4). Filter plates were then dried for 60 min at room temperature and the bottom of the plates was sealed with backing tape UniFilter-96. Finally, 50 μl/well scintillation counter cocktail (Microscint20, Packard) was added and the radioactivity was counted in the Packard TopCount NXT scintillation counter. IC50 values (the half maximal inhibitory concentration of the agonist) were calculated by nonlinear regression analysis of sigmoidal dose-response curves.
Peptides (as TFA salts) were weighed out in a filter unit (Mini-UniPrep Syringeless Filter 0.45 μm, Whatman), and 0.1 M sodium diphosphate buffer at pH 6.4 or 7.4, respectively, or 0.2 M TRIS buffer at pH 8.3 was added to achieve 10 mg/ml final concentration. The peptide was (partially) dissolved by shaking the filter unit horizontally at approx. 400 rpm for 2 hours at room temperature. The sample was filtered to remove any insoluble particles.

human NPY1 receptor = biological target: T2, human NPY1 receptor (Homo sapiens, UniProt P25929); assay: HTRF cAMP Gi assay, hY1R; format: cell-based; settings: Table 4; CHO-K1 cells
T2 construct: expressed in transfected cells; host or cells: CHO-K1
T2 sequence (P25929 1-384): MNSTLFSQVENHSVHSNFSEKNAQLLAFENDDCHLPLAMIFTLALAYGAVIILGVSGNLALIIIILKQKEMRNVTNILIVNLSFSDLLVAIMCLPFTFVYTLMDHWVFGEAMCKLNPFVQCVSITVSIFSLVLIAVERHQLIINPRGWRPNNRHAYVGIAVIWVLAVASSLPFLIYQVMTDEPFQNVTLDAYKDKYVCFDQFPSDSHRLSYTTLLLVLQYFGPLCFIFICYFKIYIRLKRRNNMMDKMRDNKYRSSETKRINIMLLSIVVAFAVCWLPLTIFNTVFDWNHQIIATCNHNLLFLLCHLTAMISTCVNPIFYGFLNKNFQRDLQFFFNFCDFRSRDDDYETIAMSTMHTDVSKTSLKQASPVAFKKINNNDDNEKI
Protocol: Briefly, the production of intracellular cAMP will generate a competition between unlabeled cAMP and exogenously added d2-cAMP for anti-cAMP antibodies conjugated to cryptate. CHO-K1 cells stably expressing the human NPY1, NPY2, NPY4 and NPY5 receptors were used with the cells brought to life from a frozen stock immediately before assay performance. 2000 cells per well were applied for all four NPY receptor subtype assays. A 384-well format was used applying a total volume of 20 μl using 5 μl cells, 2.5 μl peptide agonist, 2.5 μl forskolin and 5 μl of each of the fluorophores. […] Concentration-response evaluation of compounds was performed with 11 concentrations of agonist peptides (covering 3 decades). EC50 values were calculated by nonlinear regression using sigmoid concentration-response with variable slope.

human NPY4 receptor = biological target: T3, human NPY4 receptor (Homo sapiens, UniProt P50391); assay: HTRF cAMP Gi assay, hY4R; format: cell-based; settings: Table 4; CHO-K1 cells
T3 construct: expressed in transfected cells; host or cells: CHO-K1

human NPY5 receptor = biological target: T4, human NPY5 receptor (Homo sapiens, UniProt Q15761); assay: HTRF cAMP Gi assay, hY5R
T4 sequence (Q15761 1-445): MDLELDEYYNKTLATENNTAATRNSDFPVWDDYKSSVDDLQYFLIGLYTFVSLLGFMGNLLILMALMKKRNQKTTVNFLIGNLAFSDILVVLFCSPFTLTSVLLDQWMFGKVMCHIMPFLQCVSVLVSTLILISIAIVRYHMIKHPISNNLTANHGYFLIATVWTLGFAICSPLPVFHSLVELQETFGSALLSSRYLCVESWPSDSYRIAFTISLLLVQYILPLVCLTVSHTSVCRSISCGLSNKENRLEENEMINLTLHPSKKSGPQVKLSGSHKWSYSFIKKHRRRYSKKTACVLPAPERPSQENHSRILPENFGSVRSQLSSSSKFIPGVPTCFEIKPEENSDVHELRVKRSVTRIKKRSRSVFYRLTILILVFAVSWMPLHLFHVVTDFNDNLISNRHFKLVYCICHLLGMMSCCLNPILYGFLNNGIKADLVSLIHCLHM

[3] = Table 3, human 125I-PYY (1-36) 0.02 nM, Y2 receptor membranes, read-out: Ki
[4] = Table 8, from DMSO stock, read-out: hY2R RLB Ki (nM) DMSO
[5] = pH6.1-6.2, assumed 10 mg/ml, read-out: RLB 6 (pH6.1-6.2)

T3 sequence (P50391 whole entry): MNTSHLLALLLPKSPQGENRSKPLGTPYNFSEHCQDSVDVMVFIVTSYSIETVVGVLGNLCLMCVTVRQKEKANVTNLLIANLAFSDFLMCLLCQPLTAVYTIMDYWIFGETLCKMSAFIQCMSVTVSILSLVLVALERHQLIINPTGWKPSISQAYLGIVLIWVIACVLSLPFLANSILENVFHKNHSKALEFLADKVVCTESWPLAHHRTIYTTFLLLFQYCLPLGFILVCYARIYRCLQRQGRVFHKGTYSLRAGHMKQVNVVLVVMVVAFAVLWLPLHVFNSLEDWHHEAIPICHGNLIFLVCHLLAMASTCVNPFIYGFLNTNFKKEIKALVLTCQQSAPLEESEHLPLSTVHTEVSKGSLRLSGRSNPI

Row | Ki [1, 3] [nM] | Ki [1, 4] [nM] | Ki [2, 5] [nM] | EC50 (human NPY1 receptor) [nM] | EC50 (human NPY4 receptor) [nM] | EC50 (human NPY5 receptor) [nM] | Ki ([2]; pH7.1-7.2, assumed 10 mg/ml, read-out: RLB 7 (pH7.1-7.2)) [nM] | SMILES
1 | 1.19 | 3.5 | 6.6 |  |  |  |  | CC[C@H](C)[C@H](NC(=O)[C@H](CCC(=O)O)NC(=O)[C@H](CCC(=O)O)NC(=O)[C@@H]1CCCN1C(=O)[C@H](CO)NC(=O)[C@H](C)NC(=O)[C@H](CC(=O)O)NC(=O)[C@H](CCC(=O)O)NC(=O)[C@H](CCC(=O)O)NC(=O)[C@@H]1CCCN1C(=O)[C@H](CCCCNC(=O)COCCOCCNC(=O)COCCOCCNC(=O)CC[C@H](NC(=O)CCCCCCCCCCCCCCCCC(=O)O)C(=O)O)NC(=O)[C@H](CCC(=O)O)NC(=O)[C@@H]1CCCN1C(=O)[C@H](C)NC(=O)CC(C)C)C(=O)N[C@@H](CCC(N)=O)C(=O)N[C@@H](CCCNC(=N)N)C(=O)N[C@@H](Cc1ccc(O)cc1)C(=O)N[C@@H](Cc1ccc(O)cc1)C(=O)N[C@H](C(=O)N[C@@H](CO)C(=O)N[C@@H](CC(C)C)C(=O)N[C@@H](CCCNC(=N)N)C(=O)N[C@@H](Cc1c[nH]cn1)C(=O)N[C@@H](Cc1ccc(O)cc1)C(=O)N[C@@H](Cc1ccc(O)cc1)C(=O)N[C@@H](CC(N)=O)C(=O)N[C@@H](Cc1c[nH]c2ccccc12)C(=O)N[C@@H](CC(C)C)C(=O)N[C@H](C(=O)N[C@@H](CCCNC(=N)N)C(=O)N[C@@H](CCC(N)=O)C(=O)N[C@@H](CCCNC(=N)N)C(=O)N[C@@H](Cc1ccc(O)cc1)C(N)=O)[C@@H](C)O)C(C)C [Compound 84, N{alpha-4}-(3-methylbutanoyl)-N{epsilon-7}-[2-(2-{2-[2-(2-{2-[(4S)-4-carboxy-4-(17-carboxyheptadecanamido)butanamido]ethoxy}ethoxy)acetamido]ethoxy}ethoxy)acetamido]-[4A,7K,9E,17I,18Q,22V,28Y,30W,31L]hPYY (4-36)]
2 |  |  | 3 | > 5000 | > 5000 | > 5000 |  | CC[C@H](C)[C@H](NC(=O)[C@H](CCC(=O)O)NC(=O)[C@H](CCC(=O)O)NC(=O)[C@@H]1CCCN1C(=O)[C@@H](NC(=O)[C@H](C)NC(=O)[C@H](CC(=O)O)NC(=O)[C@H](CCC(=O)O)NC(=O)[C@H](CCC(=O)O)NC(=O)[C@@H]1CCCN1C(=O)[C@H](CCCCNC(=O)COCCOCCNC(=O)COCCOCCNC(=O)CC[C@H](NC(=O)CCCCCCCCCCCCCCCCC(=O)O)C(=O)O)NC(=O)[C@H](CCC(=O)O)NC(=O)[C@@H]1CCCN1C(=O)[C@H](C)NC(=O)CC(C)C)[C@@H](C)O)C(=O)N[C@@H](CCC(N)=O)C(=O)N[C@@H](CCCNC(=N)N)C(=O)N[C@@H](Cc1ccc(O)cc1)C(=O)N[C@@H](Cc1ccc(O)cc1)C(=O)N[C@H](C(=O)N[C@@H](CO)C(=O)N[C@@H](CC(C)C)C(=O)N[C@@H](CCCNC(=N)N)C(=O)N[C@@H](Cc1c[nH]cn1)C(=O)N[C@@H](Cc1ccc(O)cc1)C(=O)N[C@@H](Cc1ccc(O)cc1)C(=O)N[C@@H](CC(N)=O)C(=O)N[C@@H](Cc1c[nH]c2ccccc12)C(=O)N[C@@H](CC(C)C)C(=O)N[C@H](C(=O)N[C@@H](CCCNC(=N)N)C(=O)N[C@@H](CCC(N)=O)C(=O)N[C@@H](CCCNC(=N)N)C(=O)N[C@@H](Cc1ccc(O)cc1)C(N)=O)[C@@H](C)O)C(C)C [Compound 171, N{alpha-4}-(3-methylbutanoyl)-N{epsilon-7}-[2-(2-{2-[2-(2-{2-[(4S)-4-carboxy-4-(17-carboxyheptadecanamido)butanamido]ethoxy}ethoxy)acetamido]ethoxy}ethoxy)acetamido]-[4A,7K,9E,13T,17I,18Q,22V,28Y,30W,31L]hPYY (4-36)]
3 | 0.75 | 3 | 4.6 |  |  |  | 11.1 | CC(C)CC(=O)N[C@@H](C)C(=O)N1CCC[C@H]1C(=O)N[C@@H](C)C(=O)N[C@@H](CCCCNC(=O)COCCOCCNC(=O)COCCOCCNC(=O)CC[C@H](NC(=O)CCCCCCCCCCCCCCCCC(=O)O)C(=O)O)C(=O)N1CCC[C@H]1C(=O)N[C@@H](CCC(=O)O)C(=O)N[C@@H](CCC(=O)O)C(=O)N[C@@H](CC(=O)O)C(=O)N[C@@H](C)C(=O)N[C@@H](CO)C(=O)N1CCC[C@H]1C(=O)N[C@@H](CCC(=O)O)C(=O)N[C@@H](CCC(=O)O)C(=O)N[C@@H](CC(C)C)C(=O)N[C@@H](CCC(N)=O)C(=O)N[C@@H](CCCNC(=N)N)C(=O)N[C@@H](Cc1ccc(O)cc1)C(=O)N[C@@H](Cc1ccc(O)cc1)C(=O)N[C@H](C(=O)N[C@@H](CO)C(=O)N[C@@H](CC(C)C)C(=O)N[C@@H](CCCNC(=N)N)C(=O)N[C@@H](Cc1c[nH]cn1)C(=O)N[C@@H](Cc1ccc(O)cc1)C(=O)N[C@@H](Cc1ccc(O)cc1)C(=O)N[C@@H](CC(N)=O)C(=O)N[C@@H](Cc1c[nH]c2ccccc12)C(=O)N[C@@H](CC(C)C)C(=O)N[C@H](C(=O)N[C@@H](CCCNC(=N)N)C(=O)N[C@@H](CCC(N)=O)C(=O)N[C@@H](CCCNC(=N)N)C(=O)N[C@@H](Cc1ccc(O)cc1)C(N)=O)[C@@H](C)O)C(C)C [Compound 203, N{alpha-4}-(3-methylbutanoyl)-N{epsilon-7}-[2-(2-{2-[2-(2-{2-[(4S)-4-carboxy-4-(17-carboxyheptadecanamido)butanamido]ethoxy}ethoxy)acetamido]ethoxy}ethoxy)acetamido]-[4A,6A,7K,9E,18Q,22V,28Y,30W,31L]hPYY (4-36)]
